Measured values: paper PMC10448176, “Arsenite oxidase in complex with antimonite and arsenite oxyanions: Insights into the catalytic mechanism” (The Journal of Biological Chemistry, 2023)
Like-named read-outs stand apart in the source and are kept apart here.

Target: Af Aio (arsenite oxidase, AioA/AioB) (Alcaligenes faecalis, UniProt Q7SIF4)
Details: Mo active site of AioA, covalent

O[As](O)O [As, arsenite]
X-ray crystallography, crystal soak (10 mM sodium arsenite soak of ferricyanide-oxidized crystals, mu-oxo bridged to Mo, two structures: As_d (8CH9, two oxo bridges) and As_c (8CFF, one bridge, possible)): the As ion is bound to Mo via one μ-oxo bridge (Mo-Ox-As)

[OH][Sb]([OH])[OH] [Sb, antimonite]
X-ray crystallography, crystal soak (10 mM potassium antimonyl tartrate soak of ferricyanide-oxidized crystals, one oxo bridge to Mo, Sb with four further oxo/hydroxo groups, turnover intermediate): the Sb atom is sitting vertically to Mo and coordinated to the oxo ligand
